How the values were obtained:
[1] = system: ITGB6; experiment: Rescue of β6 integrin gene expression in GECs by RT-qPCR; format: cell-based, human
Protocol: GECs were seeded into cell culture dishes and allowed to grow to confluency for two days in their complete growth medium. The cells were then rinsed once with PBS and switched to FBS-free DMEM for 2 h in the presence or absence of one of: one of the suspensions of gefitinib-microparticles as above, one of the suspensions of respective control microparticles as above or 0.3 μM gefitinib. HB-EGF (5 ng/ml) and TGF-β1 (2 ng/ml; Millipore) were then added to the cells for a further 24 h.
The cells were then rinsed with PBS and used for RNA isolation and quantitative real-time reverse transcription PCR (RT-qPCR). Briefly, total RNA was extracted using PuroSPIN™ MINI Spin Columns (Luna Nanotech, Inc., Markham, ON, Canada) and the LogSpin method (Yaffe et al., 2012), and RNA concentration and purity were determined by spectrophotometry (NanoDrop One, Thermo Fisher Scientific, Waltham, MA, USA). 1 μg of total RNA was reverse-transcribed into cDNA using the High-Capacity cDNA Reverse Transcription Kit (Applied Biosystems, Thermo Fisher Scientific). […]
Asparagine-linked glycosylation 9 (ALG9) and glyceraldehyde-3-phosphate dehydrogenase (GAPDH) were used as reference genes for the target gene ITGB6 in triplicates. […] The data were analyzed using the Applied Biosystems Relative Quantification Analysis Module. […]

[2] = system: ITGB6; details: Bi et al., 2020; cited from earlier work
[3] = system: human gingival epithelial cell line (GEC); experiment: MTT test of cell viability and proliferation; format: cell-based; details: 24 h, unencapsulated gefitinib
Protocol: The spontaneously immortalized human gingival epithelial cell line (GEC; (Mäkelä et al., 1998)) was maintained in a humidified incubator at +37° C. with 95% relative humidity and 5% CO2 in DMEM supplemented with 23 mM sodium bicarbonate, 20 mM HEPES, 50 μg/ml streptomycin sulfate, 100 U/ml penicillin and 10% heat-inactivated fetal bovine serum (FBS; Gibco). […]
The MTT test (CellTiter Non-radioactive Cell Proliferation Assay, Promega, Madison, WI, USA) was used to assess the effect of the microparticle formulations on cell viability and proliferation (Twarużek et al., 2018). […] The Solubilization/Stop Solution was then added to the culture wells for 24 h to solubilize the formazan product, and the absorbance at 570 nm was recorded with a microplate reader (iMark, Bio-Rad Laboratories, Hercules, CA, USA). […]
In each test, the cells were exposed to the formulation being tested for 24 h and then analyzed for cell numbers using the MTT test. Absorbance values of the untreated samples in each replicate experiment were set to 1, and the mean±s.e.m. of the relative results of 10-18 replicated experiments is presented. *, relative to untreated cells; +, difference between the same concentration of gefitinib and control microparticles; */+, p<0.05; **/++, p<0.01; ***/+++, p<0.001. […]

[4] = In-vitro release rate of gefitinib by the dialysis sack method; format: physicochemical; details: artificial saliva and cell culture medium
Protocol: The release rate of gefitinib from microparticles as described herein into each of two different liquids was tested. The two test liquids were: artificial saliva (SAE0149, Sigma Aldrich) and Dulbecco's Modified Eagle Medium (DMEM; Gibco, Life Technologies, Inc., Burlington, ON, Canada). These liquids were used to simulate the environment of the oral cavity and body fluid, respectively.
In each of these in-vitro experiments, a dry powder of spray-dried microparticles according to one of the tested formulations was mixed into the applicable test liquid at a concentration of 20 μg dry powder per ml of test liquid.
The in-vitro release behaviors of the formulations identified as (*1), (*2), (*3), and (*4) in Table 2 were each tested by the dialysis sack method (cutoff molecular weight 8 kDa; Spectra Por; Spectrum Chemical Mfg. Corp., New Brunswick, NJ, USA). All samples were incubated at room temperature with continuous shaking at 70 rpm. […] The fluid was analyzed for gefitinib content by HPLC. The release rate of gefitinib from suspensions of dry powders in liquid was calculated from the ratio of released gefitinib to the total gefitinib encapsulated in the powders.
The release rate of unencapsulated gefitinib was measured according to the same protocol described above for the spray-dried microparticles.

Molecule | blocking of ITGB6 downregulation by HB-EGF [2] | also measured
TGF-β1: transforming growth factor-β1, used to upregulate ITGB6 |  | upregulation of ITGB6 expression ([1]; TGF-β1 alone, 2 ng/ml, 24 h): about seven-fold
COc1cc2ncnc(Nc3ccc(F)c(Cl)c3)c2cc1OCCCN1CCOCC1 [gefitinib] | capable of dose-dependently blocking ITGB6 downregulation | gefitinib concentration giving the corresponding GEC growth inhibition (baseline levels) [3]: 0.3 µM; release rate of gefitinib, in words [4]: quickly released
C#Cc1cccc(Nc2ncnc3cc(OCCOC)c(OCCOC)cc23)c1 [erlotinib] | capable of dose-dependently blocking ITGB6 downregulation | 
C=CC(=O)Nc1cc2c(Nc3ccc(F)c(Cl)c3)ncnc2cc1OCCCN1CCOCC1 [canertinib] | capable of dose-dependently blocking ITGB6 downregulation | 
CS(=O)(=O)CCNCc1ccc(-c2ccc3ncnc(Nc4ccc(OCc5cccc(F)c5)c(Cl)c4)c3c2)o1 [lapatinib] | capable of dose-dependently blocking ITGB6 downregulation | 
COc1cc2ncnc(Nc3ccc(F)c(Cl)c3)c2cc1NC(=O)/C=C/CN1CCCCC1 [dacomitinib] | capable of dose-dependently blocking ITGB6 downregulation | 
HB-EGF: EGFR ligand heparin-binding EGF-like growth factor (protein, UniProt Q99075 63-148, looked up) Heparin-binding EGF-like …: DLQEADLDLLRVTLSSKPQALATPNKEEHGKRKKKGKGLGKKRDPCLRKYKDFCIHGECKYVKELRAPSCICHPGYHGERCHGLSL |  | reduction of the TGF-β1 upregulation of ITGB6 ([1]; addition of HB-EGF 5 ng/ml to TGF-β1): about 60%
